Experimental findings from PubChem BioAssay (NCI) are described below.

Test systems include ACHN renal; UO-31 renal; KM12 colon; HCC-2998 colon; SF-295 CNS; BT-549 breast; SK-MEL-5 melanoma; K-562 leukemia; HCT-15 colon; UACC-62 melanoma.
What all share (experiment): NCI tumour cell line growth inhibition, 48 h

Where “and” joins values, the source holds several entries; their conditions need not be identical. Identical values can stand only once.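 Briefly, cells in 96-well plates were exposed to five compound concentrations for 48 h, and endpoints were estimated by linear interpolation. GI50 is the concentration that inhibits growth by half. TGI denotes the concentration required for complete inhibition of growth.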

For `O=C1C=C(SCCO)C(=O)c2ccccc21`, the GI50 with ACHN renal is 1.54 µM; with UO-31 renal, 1.24 µM; in the assay with KM12 colon it was 2.61 µM; in the assay with HCC-2998 colon, 2.78 µM; in the assay with SF-295 CNS it was 1.62 µM; with BT-549 breast, 1.55 µM. Also, the GI50 with SK-MEL-5 melanoma was 1.61 µM; with K-562 leukemia, 1.28 µM; with HCT-15 colon it was 1.91 µM; in the assay with UACC-62 melanoma, 1.6 µM. Moreover, the TGI turned out to be 2.87 µM in the assay with ACHN renal; 2.49 µM in the assay on UO-31 renal; 9.86 µM in the assay on KM12 colon; 6.8 µM in the assay on HCC-2998 colon; 3 µM with SF-295 CNS; 2.98 µM in the assay on BT-549 breast. Also, the TGI in the assay with SK-MEL-5 melanoma was 2.97 µM; in the assay on K-562 leukemia it was 4.25 µM; in the assay on HCT-15 colon, 3.9 µM; with UACC-62 melanoma, 3.04 µM.

Take `COc1cc(OC)c(-c2cc(=O)c3c(OC)c(OC)c(OC)c(OC)c3o2)cc1OC`: the TGI with ACHN renal, in the assay with UO-31 renal, with KM12 colon, in the assay on HCC-2998 colon, in the assay with SF-295 CNS and with BT-549 breast was over 100 µM in each case. Further, the TGI in the assay on SK-MEL-5 melanoma is over 100 µM; with K-562 leukemia it was over 100 µM; in the assay with HCT-15 colon, over 100 µM; with UACC-62 melanoma, over 88.5 µM.

`Cc1ccc(NS(=O)(=O)c2ccc(-c3cnc(C4CC4)o3)cc2)cc1`: the GI50 in the assay with ACHN renal is 4.43 µM; in the assay with UO-31 renal, 3.49 µM; in the assay on KM12 colon, 2.53 µM; in the assay on HCC-2998 colon, 10.8 µM; with SF-295 CNS, 2.66 µM; in the assay with BT-549 breast, 5.14 µM. The GI50 with SK-MEL-5 melanoma is 2.43 µM; in the assay with K-562 leukemia, 0.519 µM; with HCT-15 colon it was 1.48 µM; in the assay on UACC-62 melanoma, 3.06 µM. Further, the TGI with ACHN renal is 18.4 µM; with UO-31 renal it was 16.1 µM; with KM12 colon, 15.9 µM; in the assay on HCC-2998 colon, 23.5 µM; in the assay with SF-295 CNS, 12.2 µM; in the assay on BT-549 breast, 19.7 µM. Moreover, the TGI with SK-MEL-5 melanoma is 8.29 µM; in the assay with K-562 leukemia it was 16.3 µM; with HCT-15 colon, 13.1 µM; in the assay with UACC-62 melanoma, 14.9 µM.

In the case of `Cc1c(Cl)ccc2c1NC(=O)C2(O)CC(=O)c1ccc(Cl)cc1Cl` (configuration not stated), the TGI with ACHN renal, with UO-31 renal, in the assay on KM12 colon, in the assay on HCC-2998 colon, with SF-295 CNS and in the assay with BT-549 breast was over 50 µM in each case. Also, the TGI in the assay with SK-MEL-5 melanoma, in the assay on K-562 leukemia, in the assay on HCT-15 colon and in the assay on UACC-62 melanoma was over 50 µM throughout.

Consider `CN(C)c1c(Cl)c(=O)oc2c1ccc1nc(-c3ccccc3)sc12`, for which the TGI in the assay on ACHN renal, in the assay with UO-31 renal, in the assay on KM12 colon, in the assay on HCC-2998 colon, in the assay on SF-295 CNS and in the assay on BT-549 breast was over 100 µM each time. In addition, the TGI in the assay on SK-MEL-5 melanoma, in the assay with K-562 leukemia, in the assay on HCT-15 colon and in the assay on UACC-62 melanoma was over 100 µM each time.

Turning to `O=S(=O)(c1cccc(C(F)(F)F)c1)N1c2ccccc2-n2cccc2C1c1cccnc1` (configuration not stated), the TGI with ACHN renal was over 74.1 µM; in the assay with UO-31 renal, 34.3 µM; in the assay on KM12 colon, over 100 µM; in the assay on HCC-2998 colon, 43.7 µM; in the assay on SF-295 CNS, over 100 µM; in the assay on BT-549 breast, over 71.8 µM. Also, the TGI in the assay on SK-MEL-5 melanoma was over 43 µM; in the assay on K-562 leukemia, over 86.4 µM; with HCT-15 colon, over 91.4 µM; in the assay with UACC-62 melanoma, over 59.5 µM.

Regarding `O=C(c1ccccc1)c1ccc(-c2ccc(O)cc2)cc1`, the GI50 with ACHN renal was 6.88 µM; in the assay on UO-31 renal, 4.04 µM; in the assay with KM12 colon it was 2.85 µM; with HCC-2998 colon it was 15.2 µM; in the assay on SF-295 CNS it was 2.43 µM; with BT-549 breast, 4.04 µM. Also, the GI50 in the assay with SK-MEL-5 melanoma was 1.05 µM; in the assay with K-562 leukemia, 2.92 µM; in the assay with HCT-15 colon, 5 µM; in the assay on UACC-62 melanoma, 0.687 µM. For the same compound, the TGI in the assay with ACHN renal is 36.3 µM; in the assay with UO-31 renal it was 50.3 µM; with KM12 colon, 22.3 µM; in the assay with HCC-2998 colon it was 43.9 µM; with SF-295 CNS, 10.5 µM; with BT-549 breast, 31.3 µM. Moreover, the TGI in the assay with SK-MEL-5 melanoma was 11.8 µM; in the assay on K-562 leukemia it was over 60.7 µM; in the assay on HCT-15 colon, 27.7 µM; in the assay with UACC-62 melanoma, 33.7 µM.

As to `Nc1ccccc1C#C/C=C\C#Cc1ccc(F)cc1F`, the GI50 in the assay on ACHN renal was 16.6 µM; with UO-31 renal, 13.1 µM; in the assay with KM12 colon, 4.17 µM; in the assay on HCC-2998 colon, 2.57 µM; with SF-295 CNS, 7.12 µM; in the assay on BT-549 breast, 12.1 µM. Besides, the GI50 in the assay with SK-MEL-5 melanoma was 9.69 µM; in the assay on K-562 leukemia it was 4.98 µM; with HCT-15 colon, 14.1 µM; in the assay on UACC-62 melanoma, 14.6 µM. The TGI in the assay on ACHN renal came out at 32.2 µM; in the assay with UO-31 renal, 33 µM; in the assay with KM12 colon it was 19.6 µM; in the assay on HCC-2998 colon, 12.6 µM; with SF-295 CNS, 24.8 µM; with BT-549 breast, 27.5 µM. The TGI with SK-MEL-5 melanoma is 25.3 µM; in the assay with K-562 leukemia, over 100 µM; with HCT-15 colon, 31.7 µM; in the assay on UACC-62 melanoma it was 32.5 µM.

With `CCCOC(=O)N[C@H]1CCc2c(Br)c(OC)c(OC)c(OC)c2-c2ccc(SC)c(=O)cc21`, the GI50 in the assay on ACHN renal is 0.0431 µM; in the assay on UO-31 renal it was 0.103 µM; in the assay on KM12 colon, under 0.0145 µM; in the assay on HCC-2998 colon, 0.0317 µM; in the assay on SF-295 CNS, 0.0252 µM; in the assay on BT-549 breast, 0.0223 µM. Also, the GI50 in the assay with SK-MEL-5 melanoma was 0.0162 µM; in the assay on K-562 leukemia it was under 0.01 µM; with HCT-15 colon, 0.0218 µM; in the assay on UACC-62 melanoma, 0.0365 µM. Also, the TGI in the assay on ACHN renal worked out at 30.4 µM; in the assay on UO-31 renal it was 21.9 µM; with KM12 colon, 7.92 µM; with HCC-2998 colon, 4.26 µM; with SF-295 CNS, 0.833 µM; with BT-549 breast it was 6.39 µM. In addition, the TGI in the assay on SK-MEL-5 melanoma was 0.0501 µM; in the assay on K-562 leukemia, over 100 µM; in the assay on HCT-15 colon, over 36 µM; with UACC-62 melanoma, 13.2 µM.

On to `Cn1ncc2c(Nc3ccc(Br)cc3)nc(Nc3ccc(Br)cc3)nc21`, for which the GI50 is 3.74 µM with ACHN renal; 3.28 µM in the assay on UO-31 renal; 1.76 µM with KM12 colon; 1.94 µM with HCC-2998 colon; 1.82 µM in the assay with SF-295 CNS; 4.68 µM in the assay with BT-549 breast. The GI50 was 2.2 µM with SK-MEL-5 melanoma, 1.59 µM in the assay with K-562 leukemia, 2.2 µM with HCT-15 colon and 2.32 µM in the assay on UACC-62 melanoma. The TGI in the assay on ACHN renal is 13 µM; in the assay with UO-31 renal, 29 µM; with KM12 colon it was 3.48 µM; in the assay with HCC-2998 colon it was 3.98 µM; in the assay with SF-295 CNS it was 4.03 µM; with BT-549 breast, 19.4 µM. The TGI with SK-MEL-5 melanoma is 7.52 µM; with K-562 leukemia it was 4.3 µM; in the assay with HCT-15 colon, 5.62 µM; in the assay with UACC-62 melanoma, 6.82 µM.

`O=C(Cn1ccnc1[N+](=O)[O-])N(CCO)CCO`: the TGI in the assay on ACHN renal is over 250 µM; with UO-31 renal, over 1250 µM; in the assay with KM12 colon, over 1250 µM; with HCC-2998 colon, over 250 µM; in the assay with SF-295 CNS it was over 753 µM; in the assay with BT-549 breast, over 250 µM. Besides, the TGI in the assay on SK-MEL-5 melanoma is over 1250 µM; with K-562 leukemia, over 1250 µM; with HCT-15 colon it was over 1250 µM; in the assay with UACC-62 melanoma, > 250 µM and 1240 µM. The GI50 in the assay with UO-31 renal is over 1250 µM; with KM12 colon it was over 1250 µM; with SF-295 CNS it was over 185 µM; in the assay with SK-MEL-5 melanoma, over 1250 µM; with K-562 leukemia it was over 1250 µM; in the assay with HCT-15 colon, over 1250 µM. In the assay with UACC-62 melanoma, the GI50 was over 943 µM.

As to `O=C1Nc2ccc(F)c3c(OCCO)cc(-c4ccc[nH]4)c1c23`, the GI50 with ACHN renal was 0.608 µM; in the assay with UO-31 renal it was 0.632 µM; with KM12 colon, 0.274 µM; in the assay with HCC-2998 colon, 2.63 µM; in the assay with SF-295 CNS, 2.43 µM; in the assay with BT-549 breast it was 3.21 µM. The GI50 in the assay with SK-MEL-5 melanoma was 2.45 µM; in the assay on K-562 leukemia it was 5.28 µM; in the assay with HCT-15 colon it was 0.957 µM; with UACC-62 melanoma it was 2.78 µM. Besides, the TGI was determined as 7.2 µM in the assay with ACHN renal; 4.05 µM in the assay with UO-31 renal; 2.37 µM with KM12 colon; 10.1 µM in the assay on HCC-2998 colon; 18.9 µM in the assay on SF-295 CNS; 11.6 µM with BT-549 breast. The TGI came to 6.29 µM with SK-MEL-5 melanoma, 25 µM in the assay on K-562 leukemia, 7.87 µM in the assay on HCT-15 colon and 6.33 µM in the assay with UACC-62 melanoma.

With `C[C@@H]1O[C@@H](O[C@H]2C[C@@H](O)[C@]3(CO)C4C(CC[C@]3(O)C2)[C@@]2(O)CC[C@H](C3=CC(=O)OC3)[C@@]2(C)C[C@H]4O)[C@H](O)[C@H](O)[C@H]1O` (some centres not stated), the GI50 in the assay with ACHN renal was 0.0148 µM; with UO-31 renal, 0.0165 µM; with KM12 colon, 0.0512 µM; with HCC-2998 colon, 0.088 µM; in the assay with SF-295 CNS, 0.0196 µM; with BT-549 breast, 0.0186 µM. The GI50 is 0.016 µM in the assay with SK-MEL-5 melanoma, 0.0323 µM in the assay with K-562 leukemia, 0.0372 µM with HCT-15 colon and 0.0819 µM with UACC-62 melanoma. Also, the TGI in the assay on ACHN renal is 0.0461 µM; in the assay on UO-31 renal, 0.0618 µM; with KM12 colon, 0.132 µM; with HCC-2998 colon, 0.238 µM; in the assay with SF-295 CNS, 0.098 µM; in the assay on BT-549 breast, 0.0624 µM. Also, the TGI came out at 0.0533 µM with SK-MEL-5 melanoma, 0.162 µM with K-562 leukemia, 0.114 µM in the assay on HCT-15 colon and 0.151 µM in the assay on UACC-62 melanoma.
